Results filed as inconclusive are left out. Activity calls are given as the source filed them. No rule for the calls is given here. Some results are limits rather than exact numbers.

This is an account of results in PubChem BioAssay AID624374 (Broad Institute, 2012).

In one experiment the test system is HEK293 viability counterscreen, plate reader. Briefly: HEK293 cell viability, dose response, counter-screen for EBV LMP1 inhibitor project, dry powder, set 2 (AID 624374).
Conditions: not given
On the technique in general: The purpose of a counterscreen is to sort out artefacts and off-target activity.
As to `C[C@H](CO)N1C[C@H](C)[C@@H](CN(C)Cc2ccc(C(F)(F)F)cc2)Oc2ccc(NC(=O)Cc3ccccc3)cc2CC1=O`, the AC35 is > 35 µM (inactive). As to `Cc1ccc(S(=O)(=O)N(C)C[C@H]2Oc3cc(C#Cc4ccncc4)ccc3S(=O)(=O)N([C@@H](C)CO)C[C@@H]2C)cc1`, the AC35 is > 35 µM (inactive). As for `COc1ccccc1CNC(=O)C[C@@H]1C[C@H]2c3cc(NC(=O)c4ccc5c(c4)OCO5)ccc3O[C@H]2[C@H](CO)O1`, the AC35 was > 35 µM (inactive).

For the compound `CC(C)(C)[S@@](=O)N1Cc2cc(C(=O)NCc3ccccc3F)nc(-c3cccc(-c4ccncc4)c3)c2[C@H]1CCO`, the AC35 is > 35 µM (inactive). Still for that read-out and setting: for `O=C(C[C@@H]1C[C@@H]2c3cc(NC(=O)c4ccc5c(c4)OCO5)ccc3O[C@@H]2[C@@H](CO)O1)NCc1ccc(Oc2ccccc2)cc1` the value was 33.8 µM; for `O=C(C[C@H]1C[C@@H]2c3cc(NS(=O)(=O)c4ccc(F)cc4)ccc3O[C@@H]2[C@@H](CO)O1)NCc1ccc(Oc2ccccc2)cc1`, 23.1 µM; for `O=C(C[C@@H]1C[C@@H]2c3cc(NS(=O)(=O)c4ccc(F)cc4)ccc3O[C@@H]2[C@@H](CO)O1)NCc1ccc(Oc2ccccc2)cc1`, 20.8 µM. On the same count and under the same terms, for `Cc1cc(C(=O)Nc2ccc3c(c2)C(=O)N(C)[C@@H]2CC[C@@H](CC(=O)NCc4ccc(-c5ccccc5)cc4)O[C@H]2CO3)no1` the value was > 35 µM (inactive).

Test system in another experiment: not listed separately
The experiment is described as above. The note with it: HEK293 viability counterscreen, plate reader; at 35 µM (top of the series).
Take `COc1ccccc1C#Cc1ccc([C@H]2[C@H](C#N)N(C(=O)C3CC3)[C@H]2CO)cc1`: the activity change, negative = viability loss is 2.46% (inactive).
